In the NIST ThermoML archive (doi:10.1016/j.jct.2010.02.014) one finds binary diffusion coefficient data, which are given here for one compound.

The series in a line: cn = amount concentration of the nth substance listed, in mol/dm3. Particulars: 298.15 K, 101.3 kPa, Liquid, Taylor dispersion method.

For `NNC(=O)c1ccncc1` [isonicotinic acid hydrazide] + O, the binary diffusion coefficient (c1 = 0) came out at 8.26e-10 m2/s, the binary diffusion coefficient (c1 = 0.005) worked out at 8.25e-10 m2/s, the binary diffusion coefficient (c1 = 0.01) was determined as 8.23e-10 m2/s and the binary diffusion coefficient (c1 = 0.02) is 8.21e-10 m2/s.
